Reference: patent US7750135B2, “Molecular design of thermostable alcohol dehydrogenase for synthesis for chiral aromatic alcohols” (Board of Trustees of Michigan State University, priority 2007, dated 2010)
Where two headings read alike, the source gives them in different places.

How the values were obtained:
wild-type (WT) TeSADH = molecular target: T1, wild-type (WT) TeSADH (Thermoanaerobacter brockii, UniProt P14941, A186D); type: biochemical, Thermoanaerobacter ethanolicus; conditions: 60° C., 1 min, 50 mM Tris-HCl pH~6.5 (ketones) or pH~8.0 (alcohols), 0.4 mM NADP(H)
T1 construct: made in house; the wild-type adhB gene sat in plasmid pADHBIM1-kan
Description: (§1) J. 302:163-170), with (rac)-2-butanol, (rac)-1-phenethyl alcohol, (rac)-1-phenyl-2-propanol, (rac)-4-phenyl-2-butanol, and phenylacetone as substrates. Assays were done in the presence of 50 mM Tris-HCl [pH 8.0] and 0.4 mM NADP^+ (alcohol oxidation), or pH 6.5 and 0.4 mM NADPH (ketone reduction). Initial velocity was measured spectrophotometrically at 60° C. by following NADPH production (alcohol oxidation) or consumption (ketone reduction) at 340 nm for 1 min in a Varian Cary 300 UV/Vis spectrophotometer equipped with a Peltier heating system. The enzyme was preincubated for at least 5 min at 40° C. before being added to the assays. […] One unit of activity was defined as the amount of enzyme needed to consume or produce 1 μmol of NADPH per minute.

Y267G TeSADH = molecular target: T2, Y267G TeSADH (Thermoanaerobacter brockii, UniProt P14941, A186D/Y267G); type: biochemical, Thermoanaerobacter ethanolicus; conditions: heat-treated crude extracts
T2 construct: His6 (C); made in house; host or cells: E. coli, pET24a(+); heat-treated crude extract
Description: as §1

Wild-type TeSADH [1] = molecular target: T3, Wild-type TeSADH (Thermoanaerobacter brockii, UniProt P14941, A186D); type: biochemical, Thermoanaerobacter ethanolicus; design: made in house; the wild-type adhB gene sat in plasmid pADHBIM1-kan; conditions: heat-treated crude extracts
Description: as §1

Wild-type TeSADH [2] = molecular target: T3, Wild-type TeSADH; conditions: 60° C., 1 min, 50 mM Tris-HCl pH ~8.0 (alcohols) or ~6.5 (ketones), 0.4 mM NADP(H)
Description: At least eight substrate concentrations were used for each data set and each set was performed in triplicate.

[3] = enzyme concentration estimated by SDS-PAGE

T2 sequence (P14941 whole entry A186D/Y267G): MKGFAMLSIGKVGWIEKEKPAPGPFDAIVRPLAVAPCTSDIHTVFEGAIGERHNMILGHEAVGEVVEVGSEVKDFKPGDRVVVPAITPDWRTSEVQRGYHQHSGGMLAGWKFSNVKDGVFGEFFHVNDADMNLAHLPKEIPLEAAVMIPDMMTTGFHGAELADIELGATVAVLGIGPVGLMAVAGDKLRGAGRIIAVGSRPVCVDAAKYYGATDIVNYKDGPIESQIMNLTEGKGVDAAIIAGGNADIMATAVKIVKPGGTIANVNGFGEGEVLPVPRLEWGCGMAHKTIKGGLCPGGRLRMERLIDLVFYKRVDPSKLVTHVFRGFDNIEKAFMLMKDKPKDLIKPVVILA
T1 sequence (P14941 whole entry A186D): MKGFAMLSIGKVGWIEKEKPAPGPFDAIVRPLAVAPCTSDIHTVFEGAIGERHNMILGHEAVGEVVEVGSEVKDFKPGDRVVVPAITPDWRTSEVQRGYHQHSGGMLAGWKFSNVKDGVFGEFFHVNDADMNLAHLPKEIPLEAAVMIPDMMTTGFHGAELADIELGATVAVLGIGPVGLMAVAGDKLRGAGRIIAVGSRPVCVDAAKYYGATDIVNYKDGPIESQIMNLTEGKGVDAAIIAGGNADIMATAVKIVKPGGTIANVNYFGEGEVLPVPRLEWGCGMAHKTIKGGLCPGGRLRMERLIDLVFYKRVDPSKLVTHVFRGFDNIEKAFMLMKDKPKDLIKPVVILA
T3 sequence (P14941 whole entry A186D): as above

SMILES	Specific activity, WT (wild-type (WT) TeSADH; substrate 7.5 mM)	Activity of Y267G TeSADH (Y267G TeSADH)	further results
CCC(C)O (stereo not drawn) [2-Butanol]	45.27 U(umol)/mg protein	–	Specific activity of Y267G TeSADH (Y267G TeSADH; [3]): ~33 U/mg; Specific activity of wild-type TeSADH (Wild-type TeSADH [1]; [3]): ~41 U/mg; Vmax (app), Wild-type TeSADH (Wild-type TeSADH [2]): 37 U/mg; Km (Wild-type TeSADH [2]; read-out: Km (app), Wild-type TeSADH): 510 µM
CC(=O)Cc1ccccc1 [7a, 1-phenyl-2-propanone]	1.02 U(umol)/mg protein	–	–
CC(O)CCc1ccccc1 (racemic) [(rac)-4-Phenyl-2-butanol]	0.29 U(umol)/mg protein	no detectable activity	–
CC(O)Cc1ccccc1 (racemic) [(rac)-1-phenyl-2-propanol]	–	no detectable activity	Specific activity, WT (wild-type (WT) TeSADH; substrate 10 mM): 0.14 U(umol)/mg protein
CC(=O)c1ccccc1 [Acetophenone]	0.90 U(umol)/mg protein	–	–
CC(O)c1ccccc1 (racemic) [(rac)-1-Phenethyl alcohol]	–	no detectable activity	Specific activity, WT (wild-type (WT) TeSADH; substrate 10 mM): 0.15 U(umol)/mg protein
CC(=O)CCc1ccccc1 [1a, 4-Phenyl-2-butanone]	5.94 U(umol)/mg protein	–	Activity of wild-type TeSADH (Wild-type TeSADH [1]): only slight activity
